These results are taken from patent US20060106099A1, “Novel inhibitors of ubiquitin isopeptidases” (priority 2002, published 2006).

The structures appear in SMILES notation. Like-named read-outs stand apart in the source and are kept apart here.

For one data set, the system named is isopeptidase. Particulars: cited from earlier work.
Data set [1] deals with ubiquitin isopeptidases. Kind of data set: In vitro isopeptidase activity in HCT 116 lysates, Ub-PEST. In kind it is biochemical, human. Particulars: 2-200 μM, 45 min. The method, then: (§1) Isopeptidase Assay. It was hypothesized that the punaglandins would inhibit ubiquitin-isopeptidase activity of the proteasome pathway as does the prostaglandin, Δ^12-PGJ2 (1), but with greater potency because of the chlorinated C-10. To validate this theory, cellular isopeptidase enzymatic activity was measured in vitro after treatment with individual punaglandins, PNG 2 (6), PNG 3 (7), and Z-PNG 4 (9) and in vivo after individual treatment with PNG 4 (8) and PNG 6 (10). This activity was determined utilizing the simple isopeptidase substrate, ubiquitin-PEST (Ub-PEST), a full/length ubiquitin (Ub) molecule fused with an 18-amino acid C-terminal peptide extension that most isopeptidases use as a substrate. The polypeptide extension contains regions rich in Pro (P), Glu (E), Ser (S), and Thr (T) residues called PEST motifs that are responsible for rapid degradation of these and other unstable proteins. Ub isopeptidases specifically cleave this peptide extension, yielding free, full-length Ub. Both the fused Ub-PEST (10.5 kDa) and the cleaved, free Ub (8.5 kDa) can be observed via immunochemical detection.
In Vitro Isopeptidase Activity. PNG 2 (6), PNG 3 (7), and Z-PNG 4 (9) were initially analyzed for isopeptidase activity in vitro in HCT 116 lysates. Cells were lysed with isopeptidase activity buffer and protein concentration adjusted to 0.3 mg/mL per sample. Each sample was subsequently incubated with 2 μM, 6 μM, 20 μM, 60 μM, or 200 μM of PNG 2 (6), PNG 3 (7), Z-PNG 4 (9), Δ^12-PGJ2 (1), and PGA1 (2) in addition to 50 μg/ml of Ub-PEST. Negative control cells were treated with vehicle (0.5% DMSO) and equivalent Ub-PEST. […] The amount of fused Ub-PEST and free Ub product was determined by SDS-PAGE fractionation.

Data set [2] concerns RKO cells. Kind of data set: MTT cell viability assay, RKO cells. (Formazan colour is commonly taken as a measure of viable cells.)
In data set [3] the test system is HCT 116 +/+ cells. The conditions noted are these: Mullally et al., University of Utah, 2003; read-out: EC50 in competent HCT 116 cells; cited from earlier work.
A further data set concerns HCT 116 (p21^−/−). The experiment in a line: MTS cytotoxicity, HCT 116 (p21−/−). In kind it is cell-based. Particulars: Homo sapiens, log of EC50 in μM, 48 h, read-out: Log EC50 +/− Standard Error of Log EC50, HCT 116 (p21−/−) (converted). The source says:
(§2) Cytotoxicity in Human Colon Tumor (HCT) Cell Lines. To determine if punaglandins elicit cytotoxicity independently of the tumor-suppressor p53, as do other dienone prostaglandins, several cytotoxicity assays were employed. First, cell death effects of all isolated punaglandins were investigated in pairs of isogenic colon cancer cell lines, the HCT 116^+/+ competent cell line and HCT 116^−/− null cell lines. HCT 116^+/+ cells are homozygous for p53^+/+ and p21^+/+; where as, HCT 116^−/− cells lack both alleles for p53 (p53^−/−) or p21 (p21^−/−).
(§3) Each cell line was seeded simultaneously in 96-well plates and incubated for 24 h before treatment with individual punaglandins at various concentrations for 48 additional h. Cytotoxicity was determined using MTS and absorbances were recorded at 490 nm. Half maximal effective concentrations (EC50) and Log EC50s were calculated from a concentration-response curve generated using GraphPad Prism (Table 1).

For data set [4], the system named is p53. Kind of data set: p53 accumulation ratio in RKO-E6 and RKO cells, punaglandin study. Particulars: 7 μM, 6 h. The format is cell-based, human. The method, then: To determine if punaglandins inhibit p53 degradation by disrupting the proteasome pathway, the accumulation ratio of p53 was determined in RKO and RKO-E6 cells treated with selected punaglandins, PNG 4 (8) and PNG 6 (10). Equally seeded RKO and RKO-E6 cells were treated with vehicle (0.5% DMSO), 50 μM Etoposide, 60 μM PGA2 (3), 7 μM PNG 6 (10), and 7 μM PNG 4 (8). After 6 h incubation with vehicle or drug, cells were lysed and harvester. […] of protein from each lysate was fractionated by SDS-PAGE and probed for p53 protein. The p53 band intensities were then analyzed and quantitated using densitometry. The ratio of p53 in RKO-E6 to RKO cells was calculated by dividing the amount of p53 in RKO-E6 cells by the amount in RKO cells and multiplying by 100 to give percent

A further data set has as its system HCT 116 (p53^−/−). The experiment in a line: MTS cytotoxicity, HCT 116 (p53−/−). In kind it is cell-based. The conditions noted are these: Homo sapiens, log of EC50 in μM, 48 h, read-out: Log EC50 +/− Standard Error of Log EC50, HCT 116 (p53−/−) (converted).
Source text: as §2, §3

A further data set concerns RKO. Kind of data set: MTS cytotoxicity, RKO cells. Particulars: Homo sapiens, 48 h. The format is cell-based. The method, then:
(§4) Cytotoxicity in Human Colon Tumor (RKO) Cell Lines. Punaglandins (8) and (10) were also assayed for p53-independent cytotoxicity in RKO and RKO-E6 cells. Each cell line was seeded simultaneously in 96-well plates and incubated for 24 h before treatment with PNG 4 (8) and PNG 6 (10) at various concentrations for 48 h. Cytotoxicity was determined using MTS and absorbances were recorded at 490 nm. Log EC50s and EC50s were calculated from a concentration-response curve generated using GraphPad Prism (Table 2).

The next data set relates to RKO-E6. The experiment in a line: MTS cytotoxicity, RKO-E6 cells. The format is cell-based. The conditions noted are these: Homo sapiens, RKOE6, log of EC50 in μM, 48 h, read-out: Log EC50 +/− Standard Error of Log EC50, RKO-E6 (converted). As for the experimental part:
as §4

Another data set concerns HCT 116 (p53 wt). Kind of data set: MTS cytotoxicity, HCT 116 (p53 wt). In kind it is cell-based. Particulars: Homo sapiens, 48 h.
Source text: as §2, §3

Data set [5] has as its system ubiquitin isopeptidases. Kind of data set: In vivo isopeptidase activity after treatment of RKO cells, Ub-PEST. The format is cell-based, human. As for the experimental part: as §1
In vivo Isopeptidase Activity. To investigate whether punaglandins can inhibit isopeptidase activity in vivo, isopeptidase activity was analyzed after punaglandin treatment of RKO cells. PNG 4 (8) and PNG 6 (10) were selected for in vivo investigation because they differ only in enone functionality, where (8) is a dienone and (10) an enone. RKO cells were incubated with 1 μM, 4 μM, or 7 μM of PNG 4 (8) and PNG 6 (10). […] As a positive control, cells were treated with a known isopeptidase inhibitor, shikoccin (SK). After 6 h drug treatment, cells were lysed and protein concentration adjusted to 0.3 mg/mL per sample. Each sample was subsequently incubated with 50 μg/mL of Ub-PEST. The reaction was terminated after 20 min and the respective amounts of Ub-PEST (10 kDa) and free Ub product (8.5 kDa) were determined by SDS-PAGE fractionation.

A further data set concerns HCT 116 (p21 wt). Kind of data set: MTS cytotoxicity, HCT 116 (p21 wt). In kind it is cell-based. The conditions noted are these: Homo sapiens, log of EC50 in μM, 48 h, read-out: Log EC50 +/− Standard Error of Log EC50, HCT 116 (p21 wt) (converted).
Source text: as §2, §3

For another data set, the system named is caspase-3. The experiment in a line: Caspase-3 activity in RKO cells (DEVD-AMC). The format is cell-based, human. The conditions noted are these: PNG 4 0.5 μM, PNG 6 1 μM, Taxol 1 μM. The method, then: To determine if selected punaglandins, PNG 4 (8) and PNG 6 (10) also induce apoptosis in RKO cells in a time dependent manner, caspase-3 activity was determined. During apoptosis the caspases, a family of cysteinyl aspartate-specific proteases, are activated. These enzymes cleave specific substrates resulting in biochemical and morphological changes associated with apoptosis. Therefore, detection of activated caspases can be used as a biochemical marker for apoptosis. Caspase-3 has substrate specificity for the amino acid sequence Asp-Glu-Val-Asp (DEVD), cleaving after Asp, and therefore caspase activity can be measured by monitoring cleavage of the substrate DEVD-AMC (Asp-Glu-Val-Asp-7-amino-4-[…]).
RKO cells were treated for 4, 8, and 12 h with PNG 4 (8) at 0.5 μM and PNG 6 (10) at 1 μM. Taxol, a known apoptotic inducer at 1 μM, was used as a positive control, and negative control cells were treated with vehicle (0.5% DMSO). Caspase-3 activity rose steadily as expected from 4-12 h in cells treated with PNG 4 (8), PNG 6 (10), and Taxol but remained constant in the untreated control cells.

Data set [6] concerns RKO cells.
The test system of data set [7] is ubiquitin isopeptidases. Kind of data set: Ubiquitin isopeptidase activity, z-LRGG-AMC substrate, lysates of treated RKO and HCT 116 cells. Particulars: cells treated 6, 20 or 60 μM, 12 h. The format is cell-based, human. The essentials: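 RKO and HCT 116 cells were treated 12 h at 37° C with 6, 20 or 60 μM compound. Lysates at 0.5 mg/mL were pre-incubated with 30 μM MG115 (30 min, 4° C) to block proteasome, then given z-LRGG-AMC for 3 h at 37° C. Cleaved AMC was read fluorometrically.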

For data set [8], the system named is polyubiquitin conjugates in RKO-E6 cells. The experiment in a line: Accumulation of polyubiquitin in RKO-E6 cells (immunoblot). The format is cell-based, human. The conditions noted are these: EC80 or 60 μM, 6-24 h. The essentials:
(§5)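 RKO-E6 cells exposed at 37° C for 6, 12 or 24 h to compound concentrations giving 80% cell death at 48 h; for p53, RKO and RKO-E6 cells treated 6 h. Lysates (12.5 μg protein) immunoblotted for ubiquitin or p53 with ECL detection; p53 quantified by densitometry as RKO-E6/RKO ratio.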

Data set [9] deals with HCT 116 +/+ cells. Kind of data set: MTT cell viability assay, HCT 116 p53 +/+ cells. The conditions noted are these: 48 h, MTT, isogenic pair.
Data set [10] concerns HCT 116 +/+ cells.
The test system of data set [11] is p53. The experiment in a line: p53 accumulation, ratio RKO-E6 cells/RKO cells (immunoblot, densitometry). In kind it is cell-based, human. Particulars: 6 h; etoposide 50 μM, MG115, NSC-302979, DBA 20 μM, others 60 μM. The procedure, abridged:
as §5

In data set [12] the test system is ubiquitin isopeptidases. The experiment in a line: Ubiquitin isopeptidase activity, Ub-PEST substrate, lysates of treated RKO and HCT 116 cells. In kind it is cell-based, human. Particulars: cells treated 6, 20 or 60 μM, 12 h. The essentials:
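RKO and HCT 116 cells (6×10^5) were treated with 0–60 μM compound for 12 h at 37 °C, then lysed in HEPES/EDTA/CHAPS/5 mM ATP, pH 7.5. Lysates at 0.3 mg/mL protein were incubated with 50 μg/mL Ub-PEST for 45 min at 25 °C. Released 8.5 kDa ubiquitin was quantified by anti-ubiquitin western blot densitometry relative to vehicle (100%).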

Experimental for HCT 116 −/− cells: Cell viability was measured with MTT reagent as described in materials and methods.
Cell viability was detected by the MTT assay. Briefly, 1×10^5 cells were incubated per well of a sterile, 96-well assay plate with 0-60 μM of test compounds for 48 hours. MTT reagent was added to each well, final concentration of 0.5 mg/mL, and incubated for an additional 3 hours. The media was aspirated and remaining MTT reagent from each well and added 100 μL of HCl:isopropanol (1:24). The absorbance of each sample was measured at 405 nm.

Regarding `CCCCC[C@H](O)/C=C/[C@H]1C=CC(=O)[C@@H]1CCCCCCC(=O)O` [PGA1], the “isopeptidase inhibition relative to Δ12-PGJ2” value in the data set with isopeptidase was “significantly less potent”. Moreover, the “inhibition of Ub-PEST degradation in HCT 116 lysates” value in the data set with ubiquitin isopeptidases [1] is reported as “no detectable inhibition”. In addition, the EC50 is 33600 nM with RKO cells [2] (read-out: EC50 in RKO cell lines, prostaglandins for comparison, comparison values in the text) and 11600 nM in the data set with HCT 116 +/+ cells [3].
For `CCCCC/C=C\C[C@@]1(O)C=C(Cl)C(=O)/C1=C/[C@H](OC(C)=O)[C@H](CCCC(=O)OC)OC(C)=O` [PNG 4], the EC50 was 0.282 µM in the data set with HCT 116 (p21^−/−); 0.355 µM in the data set on HCT 116 (p53^−/−); 0.31 µM in the data set with RKO (read-out: EC50 in RKO cell lines, punaglandins); 0.309 µM in the data set on RKO (log of EC50 in μM, read-out: Log EC50 +/− Standard Error of Log EC50, RKO (converted)); 0.372 µM with RKO-E6; approximately 0.35 µM in the data set on HCT 116 (p53 wt) (average over the three compounds, read-out: average EC50 of PNG 3, PNG 4 and PNG 6, cytotoxicity in HCT 116 cell lines). In addition, the EC50 is 0.331 µM in the data set with HCT 116 (p53 wt) (log of EC50 in μM, read-out: Log EC50 +/− Standard Error of Log EC50, HCT 116 (p53 wt) (converted)) and 0.339 µM with HCT 116 (p21 wt). Also, the “accumulation of p53 in RKO and RKO-E6 cells” value with p53 [4] is “showed enhanced accumulation of p53”. Besides, in the data set on ubiquitin isopeptidases [5] (7 μM, 6 h), the “Ub-Pest degradation, % of the control (densitometry)” value was 67%. For the same molecule, the “concentration of noticeable inhibition of Ub-PEST degradation” value with ubiquitin isopeptidases [5] (6 h treatment) is 7 µM. The “Caspase-3 activity from 4-12 h” value with caspase-3 is “rose steadily”.
For the molecule `CCCCC[C@H](O)/C=C/C1=C(CCCCCCC(=O)O)C(=O)CC1` [PGB1], the EC50 in the data set with RKO cells [6], in the data set on RKO-E6 cells, in the data set on HCT 116 −/− cells and in the data set with HCT 116 +/+ cells [10] was more than 60000 nM each time. For the same molecule, the “inhibition of z-LRGG-AMC hydrolysis by ubiquitin isopeptidases” value in the data set with ubiquitin isopeptidases [7] is recorded as “did not”. For the same molecule, the “isopeptidase inhibition relative to Δ12-PGJ2” value with isopeptidase was “inactive”. Also, the “cellular accumulation of polyubiquitin conjugates” value in data set [8] is “did not cause appreciable cellular accumulation of ubiquitin conjugates”. For the same molecule, the “cell death in HCT 116 +/+ compared with HCT 116 −/− cells” value with HCT 116 +/+ cells [9] is recorded as “did not cause significant cell death”. Moreover, in the data set with RKO cells [2] (48 h, MTT, isogenic pair), the “cell death in RKO compared with RKO-E6 cells” value was “did not cause significant cell death”. For the same molecule, the “ratio of p53 protein [RKO-E6 cells/RKO cells]” value in the data set on p53 [11] is “significantly less than unity”. Moreover, in the data set on ubiquitin isopeptidases [12], the “inhibition of isopeptidase cleavage of Ub-PEST” value was “did not inhibit isopeptidase activity”.
